{
  "source": "patent US20140193370A1",
  "about": "“METHODS AND COMPOSITIONS FOR PROMOTING LEAN BODY MASS GROWTH” (NESTEC SA, priority 2011, published 2014)",
  "test_system": "adult dogs",
  "assay": "Chronic oral OEA in the diet of dogs fed 25% more than MER; body weight gain and body composition by DEXA",
  "assay_type": "in vivo, dog",
  "text": "The physiological effects of regular oral OEA administration were investigated. OEA was provided as a supplement to dogs for […] to study the effect on body weight gain and body composition. Eighteen adult dogs participated in the study. Males with less than 17.5% body fat and females with less than 20% body fat were selected. Based on maintenance energy requirements (MER,) body weight and percentage of body fat, the dogs were randomly assigned into two groups. The control group (N=9) received a standard dry adult dog food (control diet without any OEA). The test group (N=9) received a selected dose of OEA incorporated into the standard diet. The dogs were fed 25% more than their MER for eight months. During the first four months, they received their ration in one meal per day. From month four to eight, they received their ration equally divided in two meals per day. Body weight was recorded weekly and dual X-ray absorptiometry (DEXA) scans were performed at baseline and every two months. Food intake was recorded daily. There was no difference in food consumption between groups (i.e., similar caloric intake).",
  "data": [
    {"smiles": "CCCCCCCC/C=C\\CCCCCCCC(=O)NCCO", "note": "[OEA, oleoylethanolamide]", "values": [
      {"measurement": "Lean Gain (g/kg body weight gain)", "setting": "chronic oral OEA in diet, dogs, eight months, control diet 139", "result": 170, "unit": "g/kg body weight gain"},
      {"measurement": "Fat Gain (g/kg body weight gain)", "setting": "chronic oral OEA in diet, dogs, eight months, control diet 1333", "result": 853, "unit": "g/kg body weight gain"},
      {"measurement": "more lean body mass gained per kilogram of body weight gain than dogs fed the control diet", "setting": "eight month study, OEA containing diet vs control diet", "result": 22, "unit": "%"},
      {"measurement": "more fat gained per kilogram of body weight gain by dogs fed the control diet than by dogs fed the OEA containing diet", "setting": "eight month study, control diet vs OEA containing diet", "result": 56, "unit": "%"},
      {"measurement": "body fat", "setting": "end of eight month study, dogs fed 25% more than MER, OEA incorporated into standard diet, control diet 16.0%", "result": 14.8, "unit": "%"},
      {"measurement": "gain in lean body mass", "setting": "end of eight month study, dogs fed 25% more than MER, OEA incorporated into standard diet, control diet 236.9 g", "result": 446.7, "unit": "g"},
      {"measurement": "food consumption (caloric intake) vs control group", "setting": "food intake recorded daily, OEA diet group vs control diet group", "result": "no difference"}
    ]}
  ]
}
